PubChem BioAssay AID1963446 (Molecular Pharmacology Branch, DTP, NCI, 2024)

Tested on: 993429-296-R-J1-PDC complex spheroid growth, percent test/control
Assay: Anticancer human tumor 993429-296-R-J1-PDC patient-derived uterine sarcoma cell line growth inhibition [Asc]
Conditions: for IC50: curve of first compound; for viability, T/C: stronger effect = lower value
Procedure: Multicellular complex tumor spheroid response to apoptosis pathway targeting inhibitors Alrizomadlin, Pelcitoclax, and Dasminapant in combination with a variety of drugs and investigational agents in selected tumor cell lines
The MDM2 inhibitor alrizomadlin, the Bcl-2/Bcl-xL inhibitor pelcitoclax, and the IAPs inhibitor dasminapant were evaluated both individually and in combination with standard of care and investigational anticancer small molecules within a complex spheroid model of solid tumors. . Complex spheroids include a stromal component modeled by human endothelial cells (HUVEC) and fibroblasts modeled by human mesenchymal stem cells (MSCs). The concentration ranges selected for each drug and investigational agent were based upon clinically achievable concentrations if the clinical Cmax of the agent was known.
Compounds. The drugs and investigational agents: alrizomadlin (APG-115; NSC831270), pelcitoclax (APG-1252; NSC835773), dasminapant (APG-1387;NSC834197), TAK-243 (NSC785004), copanlisib (NSC809693), olaparib (NSC753686), talazoparib (NSC767125), cobimetinib (NSC 768068), eltanexor (KPT-8602, NSC 794443), abemaciclib (NSC 768073), sotorasib (NSC818433), adagrasib (NSC 831453), MRTX-1133 (NSC 836407), Iadademestat (ORY1001, NSC 806812), and RMC-4630 (NSC839698), were obtained from the NCI Developmental Therapeutics Program Chemical Repository. The FDA-approved anticancer drug set is available from the Developmental Therapeutics Program at https://dtp.cancer.gov/organization/dscb/obtaining/available plates.htm. […] The stock solutions were prepared in dimethyl sulfoxide (DMSO, Sigma-Aldrich, St. Louis, MO, cat. D2650) at 800-fold the tested concentration and stored at -70 degrees C prior to their use. All drugs and investigational agents were tested over a range starting from a high concentration at or near the clinical Cmax and decreasing in half-log increments. If the clinical Cmax for an agent had not been determined, the highest concentration tested was 10 microM.
The patient-derived cancer (PDC) cell lines include five colon adenocarcinomas: 186277-243-T-J2-PDC, 616215-338-R-J1-PDC, 439559-082-T-J2-PDC, 463943-066-T-J2-PDC, and 519858-162-T-J1-PDC; three pancreatic carcinomas: 323965-272-R-J2-PDC, 521955-158-R6-J3-PDC, and 521955-158-R2-J5-PDC; two uterine sarcomas: 327498-152-R-J2-PDC and 993429-296-R-J1-PDC; two rhabdomyosarcomas: 755483-174-R-J1-PDC and 772245-204-R-J1-PDC; two soft tissue sarcomas: 126254-015-R-J1-PDC and 494315-158-R-J1-PDC; two malignant fibrous histiocytomas: 317291-083-R-J1-PDC and 596521-263-R-J1-PDC; two breast carcinomas: 171881-019-R-J1-PDC and 885512-296-R-J2-PDC; and one ovarian carcinoma: 6556581-035-R-J-PDC were obtained from the NCI PDMR, (https://pdmr.cancer.gov). The established cell lines HSSY-2 synovial sarcoma (RRID:CVCL 8719), SYO-1 synovial sarcoma (RRID:CVCL_7146), MPNST malignant peripheral neural sheath tumor were obtained from the Sloan Kettering Institute. The following established cell lines were purchased from the American Type Culture Collection (ATCC, Manassas, VA), Sor the received from the NCI repository:, PANC-1 pancreatic carcinoma (CRL-1469, RRID:CVCL_0480), OVCAR-5 ovarian carcinoma (RRID:CVCL_1628), OVCAR-8 ovarian carcinoma (RRID:CVCL_1629), , MCF-7 breast carcinoma (CRL-12584, RRID:CVCL_0031), MDA-MB-231 breast carcinoma (CRL-12532, RRID:CVCL_0062), NCI-H1876 small cell lung carcinoma (CRL-5902, RRID:CVCL_1503), NCI-H510A small cell lung carcinoma (HTB-184, RRID:CVCL_1565), NCI-H1417 (CRL-5869, RRID:CVCL_1469), and NCI-H196 small cell lung carcinoma (CRL-5823, RRID:CVCL_1509). Dr. Peter Houghton (Greehey Children's Cancer Research Institute, University of Texas Health Science Center, San Antonio, TX) provided Rh-18 rhabdomyosarcoma (RRID:CVCL_1659). Pooled donor human umbilical vein endothelial cells (HUVEC, Lonza, cat. CC-2519) and human mesenchymal stem cells (hMSC, Lonza, cat. PT-2501) were purchased from Lonza (Walkersville, MD).
Cell Culture. […]
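Note: spheroids exposed to compounds for seven days.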

- IC50 (second compound 0.1 µM): 9.83 nM
- IC50 (second compound 0.316 µM): 4.71 nM
- IC50 (second compound 1 µM): 3.8 nM
- IC50 (second compound 3.16 µM): 1.01 nM
- IC50 (second compound 10 µM): 10.1 nM
SMILES: Cn1ncnc1[C@H]1c2n[nH]c(=O)c3cc(F)cc(c23)N[C@@H]1c1ccc(F)cc1 + Cc1c(S(C)(=O)=O)c(-c2cc(F)cc(N3CCN(c4ccc(NS(=O)(=O)c5ccc(NC(CCN6CCC(C(=O)OCCCP(=O)(O)O)CC6)CSc6ccccc6)c(S(=O)(=O)C(F)(F)F)c5)cc4)CC3)c2)c(-c2ccc(Cl)cc2)n1C(C)C
- viability, T/C (second compound 0.1 µM, first compound 0.000316 µM): 66.9%
- viability, T/C (second compound 0.1 µM, first compound 0.001 µM): 70.1%
- viability, T/C (second compound 0.1 µM, first compound 0.00316 µM): 64.5%
- viability, T/C (second compound 0.1 µM, first compound 0.01 µM): 46.7%
- viability, T/C (second compound 0.1 µM, first compound 0.0316 µM): 34.1%
- viability, T/C (second compound 0.1 µM, first compound 0.1 µM): 18.5%
- viability, T/C (second compound 0.316 µM, first compound 0.000316 µM): 62.6%
- viability, T/C (second compound 0.316 µM, first compound 0.001 µM): 73.7%
- viability, T/C (second compound 0.316 µM, first compound 0.00316 µM): 50.3%
- viability, T/C (second compound 0.316 µM, first compound 0.01 µM): 37.3%
- viability, T/C (second compound 0.316 µM, first compound 0.0316 µM): 33.3%
- viability, T/C (second compound 0.316 µM, first compound 0.1 µM): 14.2%
- viability, T/C (second compound 1 µM, first compound 0.000316 µM): 68.8%
- viability, T/C (second compound 1 µM, first compound 0.001 µM): 68.5%
- viability, T/C (second compound 1 µM, first compound 0.00316 µM): 50.1%
- viability, T/C (second compound 1 µM, first compound 0.01 µM): 35.8%
- viability, T/C (second compound 1 µM, first compound 0.0316 µM): 22.7%
- viability, T/C (second compound 1 µM, first compound 0.1 µM): 10.6%
- viability, T/C (second compound 3.16 µM, first compound 0.000316 µM): 52.8%
- viability, T/C (second compound 3.16 µM, first compound 0.001 µM): 48.5%
- viability, T/C (second compound 3.16 µM, first compound 0.00316 µM): 44.3%
- viability, T/C (second compound 3.16 µM, first compound 0.01 µM): 28.9%
- viability, T/C (second compound 3.16 µM, first compound 0.0316 µM): 9.8%
- viability, T/C (second compound 3.16 µM, first compound 0.1 µM): 10.8%
- viability, T/C (second compound 10 µM, first compound 0.000316 µM): 103%
- viability, T/C (second compound 10 µM, first compound 0.001 µM): 81%
- viability, T/C (second compound 10 µM, first compound 0.00316 µM): 93.3%
- viability, T/C (second compound 10 µM, first compound 0.01 µM): 50.1%
- viability, T/C (second compound 10 µM, first compound 0.0316 µM): 12.4%
- viability, T/C (second compound 10 µM, first compound 0.1 µM): 9.31%
